For 13 compounds, inhibition and CC50 results are on record in patent US20140303164A1, “THERAPEUTIC COMPOUNDS” (Gilead Sciences, Inc., priority 2013, published 2014).

By inhibition is commonly meant the share of the control response that was lost under treatment. A word on the CC50: it is the concentration at which the toxic effect on the cells reaches its halfway point. A low value points to harm at low concentration.

One series deals with HIV-IIIb. As to the kind of experiment: Test A: Antiviral Assay in MT4 Cells. It is filed as cell-based, HIV-1. As to conditions: Human immunodeficiency virus 1, IIIB, MT4, 120 h; for inhibition at 0.2 µM: read-out: % inhibition at 0.2 μM; for inhibition at 2 µM: read-out: % inhibition at 2 μM. On the procedure:
Test A: Antiviral Assay in MT4 Cells
MT-4 cells were next mixed with HIV-IIIb at an m.o.i of 0.003 for 1 hour, after which time 35 μL of virus/cell mixture (2000 cells) was immediately added to each well containing 40 μL of diluted compound. The plates were then incubated at 37° C. for 5 days. […] Cell lysis was carried out by incubating at room temperature for 10 min and then chemiluminescence was read.

The nature of series [1]: Test B: Cytotoxicity Assay. It is filed as cell-based. As to conditions: human, uninfected MT-4 cells, same protocol as Test A. In outline:
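Uninfected MT-4 cells (2000 per well) incubated with diluted compound at 37° C. for 5 days, following the antiviral protocol without HIV-IIIb.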

Turning to `Cn1nc(NS(N)(=O)=O)c2c(Cl)ccc(-c3ccc(C#CC(C)(C)O)nc3[C@H](Cc3cc(F)cc(F)c3)NC(=O)Cn3nc(C(F)(F)F)c4c3C(F)(F)[C@@H]3C[C@H]43)c21` [Compound 119C, N—((S)-1-(3-(4-chloro-1-methyl-3-(sulfamoylamino)-1H-indazol-7-yl)-6-(3-hydroxy-3-methylbut-1-yn-1-yl)pyridin-2-yl)-2-(3,5-difluorophenyl)ethyl)-2-((3b-S,4aR)-5,5-difluoro-3-(trifluoromethyl)-3b,4,4a,5-tetrahydro-1H-cyclopropa[3,4]cyclopenta[1,2-c]pyrazol-1-yl)acetamide], in the series on HIV-IIIb, the inhibition at 0.2 µM was determined as 99% and the inhibition at 2 µM amounted to 99%. For the same compound, in series [1], half-maximal cytotoxicity (CC50 at 5 days) was put at 9.24 µM.

For `CC(C)(O)C#Cc1ccc(-c2ccc(Cl)c3c(NS(C)(=O)=O)n[nH]c23)c([C@H](Cc2cc(F)cc(F)c2)NC(=O)Cn2nc(C(F)F)c3c2C(F)(F)[C@@H]2C[C@H]32)n1` [Compound 108C, N—((S)-1-(3-(4-chloro-3-(methylsulfonamido)-1H-indazol-7-yl)-6-(3-hydroxy-3-methylbut-1-yn-1-yl)pyridin-2-yl)-2-(3,5-difluorophenyl)ethyl)-2-((3b-S,4aR)-3-(difluoromethyl)-5,5-difluoro-3b,4,4a,5-tetrahydro-1H-cyclopropa[3,4]cyclopenta[1,2-c]pyrazol-1-yl)acetamide], in the series with HIV-IIIb, the inhibition at 0.2 µM stood at 94% and the inhibition at 2 µM came out at 94%. Also, the CC50 at 5 days in series [1] is above 53.1 µM.

Take `Cn1cc(-c2ccc(-c3cccc4c(NS(C)(=O)=O)nn(C)c34)c([C@H](Cc3cc(F)cc(F)c3)NC(=O)Cn3nc(C(F)(F)F)c4c3C(F)(F)[C@@H]3C[C@H]43)n2)cn1` [Compound 60, 2-((3bS,4aR)-5,5-difluoro-3-(trifluoromethyl)-3b,4,4a,5-tetrahydro-1H-cyclopropa[3,4]cyclopenta[1,2-c]pyrazol-1-yl)-N—((S)-2-(3,5-difluorophenyl)-1-(6-(1-methyl-1H-pyrazol-4-yl)-3-(1-methyl-3-(methylsulfonamido)-1H-indazol-7-yl)pyridin-2-yl)ethyl)acetamide]: in the series with HIV-IIIb, the inhibition at 0.2 µM was 86% and the inhibition at 2 µM amounted to 96%. This compound displayed a CC50 at 5 days in series [1] of 14.3 µM.

Take `Cn1nc(NS(C)(=O)=O)c2c(C(F)F)ccc(-c3ccc(C#CC(C)(C)O)nc3[C@H](Cc3cc(F)cc(F)c3)NC(=O)Cn3nc(C(F)F)c4c3C(F)(F)[C@@H]3C[C@H]43)c21` [Compound 155I, N—((S)-1-(3-(4-(difluoromethyl)-1-methyl-3-(methylsulfonamido)-1H-indazol-7-yl)-6-(3-hydroxy-3-methylbut-1-yn-1-yl)pyridin-2-yl)-2-(3,5-difluorophenyl)ethyl)-2-((3b-S,4aR)-3-(difluoromethyl)-5,5-difluoro-3b,4,4a,5-tetrahydro-1H-cyclopropa[3,4]cyclopenta[1,2-c]pyrazol-1-yl)acetamide]: in the series on HIV-IIIb, the inhibition at 0.2 µM is 99% and the inhibition at 2 µM came to 99%. The same compound registered a CC50 at 5 days in series [1] of 26.8 µM.

Regarding `Cn1nccc1-c1ccc(-c2ccc(Cl)c3c(NS(C)(=O)=O)nn(C)c23)c([C@H](Cc2cc(F)cc(F)c2)NC(=O)Cn2nc(C(F)(F)F)c3c2C(F)(F)[C@@H]2C[C@H]32)n1` [Compound 175, N—((S)-1-(3-(4-chloro-1-methyl-3-(methylsulfonamido)-1H-indazol-7-yl)-6-(1-methyl-1H-pyrazol-5-yl)pyridin-2-yl)-2-(3,5-difluorophenyl)ethyl)-2-((3b-S,4aR)-5,5-difluoro-3-(trifluoromethyl)-3b,4,4a,5-tetrahydro-1H-cyclopropa[3,4]cyclopenta[1,2-c]pyrazol-1-yl)acetamide], in the series with HIV-IIIb, the inhibition at 0.2 µM was found to be 95% and the inhibition at 2 µM amounted to 95%. Further, in series [1], the CC50 at 5 days was above 46.1 µM.

`COc1ccc(-c2ccc(C#CC(C)(C)O)nc2[C@H](Cc2cc(F)cc(F)c2)NC(=O)Cn2nc(C(F)F)c3c2C(F)(F)[C@@H]2C[C@H]32)c2c1c(N)nn2C` [Compound 114G, N—((S)-1-(3-(3-amino-4-methoxy-1-methyl-1H-indazol-7-yl)-6-(3-hydroxy-3-methylbut-1-yn-1-yl)pyridin-2-yl)-2-(3,5-difluorophenyl)ethyl)-2-((3b-S,4aR)-3-(difluoromethyl)-5,5-difluoro-3b,4,4a,5-tetrahydro-1H-cyclopropa[3,4]cyclopenta[1,2-c]pyrazol-1-yl)acetamide]: in the series with HIV-IIIb, the inhibition at 0.2 µM was found to be 100% and the inhibition at 2 µM was 100%. For the same compound, the CC50 at 5 days in series [1] is 14.8 µM.

In the case of `CN1CCN(C(=O)Nc2nn(C)c3c(-c4ccc(C#CC(C)(C)O)nc4[C@H](Cc4cc(F)cc(F)c4)NC(=O)Cn4nc(C(F)(F)F)c5c4C(F)(F)[C@@H]4C[C@H]54)cccc23)CC1` [Compound 51, N-(7-(2-((S)-1-(2-((3bS,4aR)-5,5-difluoro-3-(trifluoromethyl)-3b,4,4a,5-tetrahydro-1H-cyclopropa[3,4]cyclopenta[1,2-c]pyrazol-1-yl)acetamido)-2-(3,5-difluorophenyl)ethyl)-6-(3-hydroxy-3-methylbut-1-yn-1-yl)pyridin-3-yl)-1-methyl-1H-indazol-3-yl)-4-methylpiperazine-1-carboxamide], in the series on HIV-IIIb, the inhibition at 0.2 µM turned out to be 95% and the inhibition at 2 µM turned out to be 95%. Further, half-maximal cytotoxicity in series [1] (CC50 at 5 days) was put at 11.1 µM.

Turning to `Cn1nc(NS(C)(=O)=O)c2c(Cl)ccc(-c3ccc(C#CC(C)(O)CF)nc3[C@H](Cc3cc(F)cc(F)c3)NC(=O)Cn3nc(C(F)(F)F)c4c3C(F)(F)[C@@H]3C[C@H]43)c21` (stereo partly drawn) [Compound 152, N-((1S)-1-(3-(4-chloro-1-methyl-3-(methylsulfonamido)-1H-indazol-7-yl)-6-(4-fluoro-3-hydroxy-3-methylbut-1-yn-1-yl)pyridin-2-yl)-2-(3,5-difluorophenyl)ethyl)-2-((3b-S,4aR)-5,5-difluoro-3-(trifluoromethyl)-3b,4,4a,5-tetrahydro-1H-cyclopropa[3,4]cyclopenta[1,2-c]pyrazol-1-yl)acetamide], in the series with HIV-IIIb, the inhibition at 0.2 µM stood at 89% and the inhibition at 2 µM worked out at 89%. Also, in series [1], the CC50 at 5 days amounted to 11.9 µM.

In the case of `CCn1nc(N)c2cccc(-c3ccc(C#CC(C)(C)O)nc3[C@H](Cc3cc(F)cc(F)c3)NC(=O)Cn3nc(C(F)(F)F)c4c3C(F)(F)[C@@H]3C[C@H]43)c21` [Compound 45G, N—((S)-1-(3-(3-amino-1-ethyl-1H-indazol-7-yl)-6-(3-hydroxy-3-methylbut-1-yn-1-yl)pyridin-2-yl)-2-(3,5-difluorophenyl)ethyl)-2-((3b-S,4aR)-5,5-difluoro-3-(trifluoromethyl)-3b,4,4a,5-tetrahydro-1H-cyclopropa[3,4]cyclopenta[1,2-c]pyrazol-1-yl)acetamide], in the series with HIV-IIIb, the inhibition at 0.2 µM was found to be 92% and the inhibition at 2 µM was found to be 92%. Also, the CC50 at 5 days in series [1] is 10.4 µM.

Turning to `CC(C)(O)C#Cc1ccc(-c2cccc3c(=O)[nH]ccc23)c([C@H](Cc2cc(F)cc(F)c2)NC(=O)Cn2nc(C(F)(F)F)c3c2C(F)(F)[C@@H]2C[C@H]32)n1` [Compound 24B, 2-((3bS,4aR)-5,5-difluoro-3-(trifluoromethyl)-3b,4,4a,5-tetrahydro-1H-cyclopropa[3,4]cyclopenta[1,2-c]pyrazol-1-yl)-N—((S)-2-(3,5-difluorophenyl)-1-(6-(3-hydroxy-3-methylbut-1-yn-1-yl)-3-(1-oxo-1,2-dihydroisoquinolin-5-yl)pyridin-2-yl)ethyl)acetamide], in the series with HIV-IIIb, the inhibition at 0.2 µM came to 78% and the inhibition at 2 µM came out at 83%. The compound further had a CC50 at 5 days in series [1] of 5.92 µM.

For the compound `Cn1nc(N)c2cccc(-c3cnc(C#CC(C)(C)O)nc3[C@H](Cc3cc(F)cc(F)c3)NC(=O)Cn3nc(C(F)F)c4c3C(F)(F)CCC4(F)F)c21` [Compound 37F, (S)—N-(1-(5-(3-amino-1-methyl-1H-indazol-7-yl)-2-(3-hydroxy-3-methylbut-1-yn-1-yl)pyrimidin-4-yl)-2-(3,5-difluorophenyl)ethyl)-2-(3-(difluoromethyl)-4,4,7,7-tetrafluoro-4,5,6,7-tetrahydro-1H-indazol-1-yl)acetamide], in the series with HIV-IIIb, the inhibition at 0.2 µM was found to be 90% and the inhibition at 2 µM is 90%. The compound further yielded a CC50 at 5 days in series [1] of 6.35 µM.

For `CC(C)(C)C#Cc1ccc(-c2ccc(Cl)n3c(NS(C)(=O)=O)nnc23)c([C@H](Cc2cc(F)cc(F)c2)NC(=O)Cn2nc(C(F)F)c3c2C(F)(F)[C@@H]2C[C@H]32)n1` [Compound 118, N—((S)-1-(3-(5-chloro-3-(methylsulfonamido)-[1,2,4]triazolo[4,3-a]pyridin-8-yl)-6-(3,3-dimethylbut-1-yn-1-yl)pyridin-2-yl)-2-(3,5-difluorophenyl)ethyl)-2-((3b-S,4aR)-3-(difluoromethyl)-5,5-difluoro-3b,4,4a,5-tetrahydro-1H-cyclopropa[3,4]cyclopenta[1,2-c]pyrazol-1-yl)acetamide], in the series with HIV-IIIb, the inhibition at 0.2 µM was 96% and the inhibition at 2 µM turned out to be 96%. Besides, in series [1], the CC50 at 5 days worked out at 23.9 µM.

As to `CC(C)(O)C#Cc1ccc(-c2cccc3c(NS(C)(=O)=O)noc23)c([C@H](Cc2cc(F)cc(F)c2)NC(=O)Cn2nc(C(F)(F)F)c3c2C(F)(F)[C@@H]2C[C@H]32)n1` [Compound 39C, 2-((3bS,4aR)-5,5-difluoro-3-(trifluoromethyl)-3b,4,4a,5-tetrahydro-1H-cyclopropa[3,4]cyclopenta[1,2-c]pyrazol-1-yl)-N—((S)-2-(3,5-difluorophenyl)-1-(6-(3-hydroxy-3-methylbut-1-yn-1-yl)-3-(3-(methylsulfonamido)benzo[d]isoxazol-7-yl)pyridin-2-yl)ethyl)acetamide], in the series with HIV-IIIb, the inhibition at 0.2 µM was 7% and the inhibition at 2 µM came out at 91%. In series [1], this compound came in with a CC50 at 5 days of 26.5 µM.
